# How the values were obtained:
# Format in all cases: in vivo
# [1] = system: galium (catchweed bedstraw, Galium aparine); assay: Test C postemergence; settings: Galium, post-emergence, 336 h, Postemergence, scale 0 to 100, read-out: Plant response rating, Galium
# How it was run: (§1)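 Seeded loam-sand soil (preemergence) or young potted plants of 2-18 cm (postemergence) received test chemical formulated with surfactant in a non-phytotoxic solvent. Pots were kept in the greenhouse for 13-15 days before a visual 0-100 control rating relative to controls.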
# [2] = system: corn (Zea mays); assay: Test C postemergence; settings: Zea mays, post-emergence, 336 h, Postemergence, scale 0 to 100
# How it was run: as §1
# [3] = system: oilseed rape (Brassica napus); assay: Test C postemergence; settings: Brassica napus, post-emergence, Postemergence, scale 0 to 100, read-out: Plant response rating, Oilseed Rape
# How it was run: as §1
# [4] = system: soybean (Glycine max); assay: Test C postemergence; settings: Glycine max, post-emergence, Postemergence, scale 0 to 100, read-out: Plant response rating, Soybean
# How it was run: as §1
# [5] = system: blackgrass (Alopecurus myosuroides); assay: Test C postemergence; settings: Alopecurus myosuroides, post-emergence, 336 h, Postemergence, scale 0 to 100, read-out: Plant response rating, Blackgrass
# How it was run: as §1
# [6] = system: Italian ryegrass (Lolium multiflorum); assay: Test C postemergence; settings: Lolium multiflorum, post-emergence, 336 h, Postemergence, scale 0 to 100, read-out: Plant response rating, Ryegrass, Italian
# How it was run: as §1
# [7] = system: velvetleaf (Abutilon theophrasti); assay: Test C postemergence; settings: Abutilon theophrasti, post-emergence, Postemergence, scale 0 to 100, read-out: Plant response rating, Velvetleaf
# How it was run: as §1
# [8] = system: wild oat (Avena fatua); assay: Test C postemergence; settings: Avena fatua, post-emergence, Postemergence, scale 0 to 100, read-out: Plant response rating, Oat, Wild
# How it was run: as §1
# [9] = system: ragweed (common ragweed, Ambrosia elatior); assay: Test C postemergence; settings: Ambrosia artemisiifolia, post-emergence, 336 h, Postemergence, scale 0 to 100, read-out: Plant response rating, Ragweed
# How it was run: as §1
# [10] = system: kochia (Kochia scoparia); assay: Test C postemergence; settings: Bassia scoparia, post-emergence, Postemergence, scale 0 to 100, read-out: Plant response rating, Kochia
# How it was run: as §1
# [11] = system: yellow nutsedge (Cyperus esculentus); assay: Test C postemergence; settings: Cyperus, post-emergence, 336 h, Postemergence, scale 0 to 100, read-out: Plant response rating, Nutsedge, Yellow
# How it was run: as §1
# [12] = system: lambsquarters (Chenopodium album); assay: Test C postemergence; settings: Chenopodium album, post-emergence, 336 h, Postemergence, scale 0 to 100, read-out: Plant response rating, Lambsquarters
# How it was run: as §1
# [13] = system: morningglory (Ipomoea coccinea); assay: Test C postemergence; settings: Ipomoea, post-emergence, 336 h, Postemergence, scale 0 to 100, read-out: Plant response rating, Morningglory
# How it was run: as §1
# [14] = system: chickweed (common chickweed, Stellaria media); assay: Test C postemergence; settings: Stellaria media, post-emergence, Postemergence, scale 0 to 100, read-out: Plant response rating, Chickweed
# How it was run: as §1
# [15] = system: barnyardgrass (Echinochloa crus-galli); assay: Test C postemergence; settings: Echinochloa crus-galli, post-emergence, Postemergence, scale 0 to 100, read-out: Plant response rating, Barnyardgrass
# How it was run: as §1
# [16] = system: large (Lg) crabgrass (Digitaria sanguinalis); assay: Test C postemergence; settings: Digitaria sanguinalis, post-emergence, 336 h, Postemergence, scale 0 to 100, read-out: Plant response rating, Crabgrass, Large
# How it was run: as §1
# [17] = system: johnsongrass (Sorghum halepense); assay: Test C postemergence; settings: Sorghum halepense, post-emergence, 336 h, Postemergence, scale 0 to 100, read-out: Plant response rating, Johnsongrass
# How it was run: as §1
# [18] = system: winter wheat (Triticum aestivum); assay: Test C postemergence; settings: Triticum aestivum, post-emergence, 336 h, Postemergence, scale 0 to 100, read-out: Plant response rating, Wheat
# How it was run: as §1
# [19] = system: giant foxtail (Setaria faberii); assay: Test C postemergence; settings: Setaria faberi, post-emergence, 336 h, Postemergence, scale 0 to 100, read-out: Plant response rating, Foxtail, Giant
# How it was run: as §1
# [20] = system: oilseed rape (Brassica napus); assay: Test C preemergence; settings: Brassica napus, pre-emergence, scale 0 to 100, read-out: Plant response rating, Oilseed Rape
# How it was run: as §1
# [21] = system: blackgrass (Alopecurus myosuroides); assay: Test C preemergence; settings: Alopecurus myosuroides, pre-emergence, 336 h, scale 0 to 100, read-out: Plant response rating, Blackgrass
# How it was run: as §1
# [22] = system: yellow nutsedge (Cyperus esculentus); assay: Test C preemergence; settings: Cyperus, pre-emergence, 336 h, scale 0 to 100, read-out: Plant response rating, Nutsedge, Yellow
# How it was run: as §1
structure (smiles),measurement,setting,value
"N#Cc1cccc(Oc2ncc(Cl)cn2)c1Oc1ncc(C(F)(F)F)cn1 [Compound 38, 3-[(5-chloro-2-pyrimidinyl)oxy]-2-[[5-(trifluoromethyl)-2-pyrimidinyl]oxy]-benzonitrile]",pest or weed control at 16 g/ha,[1]; 16 g ai/ha,70%
same,pest or weed control at 31 g/ha,[1]; 31 g ai/ha,85%
same,pest or weed control at 62 g/ha,[1]; 62 g ai/ha,90%
same,pest or weed control at 125 g/ha,[1]; 125 g ai/ha,90%
same,"Corn plant response rating (crop injury, 0 = no effect, 100 = complete kill) at 16 g/ha",[2]; 16 g ai/ha,10%
same,"Corn plant response rating (crop injury, 0 = no effect, 100 = complete kill) at 31 g/ha",[2]; 31 g ai/ha,20%
same,"Corn plant response rating (crop injury, 0 = no effect, 100 = complete kill) at 62 g/ha",[2]; 62 g ai/ha,15%
same,"Corn plant response rating (crop injury, 0 = no effect, 100 = complete kill) at 125 g/ha",[2]; 125 g ai/ha,15%
same,plant injury at 31 g/ha,[3]; 31 g ai/ha,20%
same,plant injury at 62 g/ha,[3]; 62 g ai/ha,25%
same,plant injury at 125 g/ha,[3]; 125 g ai/ha,5%
same,plant injury at 31 g/ha,[4]; 31 g ai/ha,85%
same,plant injury at 62 g/ha,[4]; 62 g ai/ha,50%
same,plant injury at 125 g/ha,[4]; 125 g ai/ha,80%
same,pest or weed control at 16 g/ha,[5]; 16 g ai/ha,0%
same,pest or weed control at 31 g/ha,[5]; 31 g ai/ha,0%
same,pest or weed control at 62 g/ha,[5]; 62 g ai/ha,10%
same,pest or weed control at 125 g/ha,[5]; 125 g ai/ha,15%
same,pest or weed control at 31 g/ha,[6]; 31 g ai/ha,5%
same,pest or weed control at 62 g/ha,[6]; 62 g ai/ha,5%
same,pest or weed control at 125 g/ha,[6]; 125 g ai/ha,5%
same,pest or weed control at 31 g/ha,[7]; 31 g ai/ha,65%
same,pest or weed control at 62 g/ha,[7]; 62 g ai/ha,55%
same,pest or weed control at 125 g/ha,[7]; 125 g ai/ha,60%
same,pest or weed control at 31 g/ha,[8]; 31 g ai/ha,5%
same,pest or weed control at 62 g/ha,[8]; 62 g ai/ha,10%
same,pest or weed control at 125 g/ha,[8]; 125 g ai/ha,10%
same,pest or weed control at 31 g/ha,[9]; 31 g ai/ha,55%
same,pest or weed control at 62 g/ha,[9]; 62 g ai/ha,70%
same,pest or weed control at 125 g/ha,[9]; 125 g ai/ha,50%
same,pest or weed control at 16 g/ha,[10]; 16 g ai/ha,90%
same,pest or weed control at 31 g/ha,[10]; 31 g ai/ha,90%
same,pest or weed control at 62 g/ha,[10]; 62 g ai/ha,90%
same,pest or weed control at 125 g/ha,[10]; 125 g ai/ha,95%
same,pest or weed control at 31 g/ha,[11]; 31 g ai/ha,0%
same,pest or weed control at 62 g/ha,[11]; 62 g ai/ha,5%
same,pest or weed control at 125 g/ha,[11]; 125 g ai/ha,10%
same,pest or weed control at 16 g/ha,[12]; 16 g ai/ha,65%
same,pest or weed control at 31 g/ha,[12]; 31 g ai/ha,70%
same,pest or weed control at 62 g/ha,[12]; 62 g ai/ha,80%
same,pest or weed control at 125 g/ha,[12]; 125 g ai/ha,90%
same,pest or weed control at 31 g/ha,[13]; 31 g ai/ha,85%
same,pest or weed control at 62 g/ha,[13]; 62 g ai/ha,85%
same,pest or weed control at 125 g/ha,[13]; 125 g ai/ha,90%
same,pest or weed control at 16 g/ha,[14]; 16 g ai/ha,50%
same,pest or weed control at 31 g/ha,[14]; 31 g ai/ha,50%
same,pest or weed control at 62 g/ha,[14]; 62 g ai/ha,70%
same,pest or weed control at 125 g/ha,[14]; 125 g ai/ha,85%
same,pest or weed control at 16 g/ha,[15]; 16 g ai/ha,10%
same,pest or weed control at 31 g/ha,[15]; 31 g ai/ha,20%
same,pest or weed control at 62 g/ha,[15]; 62 g ai/ha,20%
same,pest or weed control at 125 g/ha,[15]; 125 g ai/ha,35%
same,pest or weed control at 16 g/ha,[16]; 16 g ai/ha,5%
same,pest or weed control at 31 g/ha,[16]; 31 g ai/ha,10%
same,pest or weed control at 62 g/ha,[16]; 62 g ai/ha,10%
same,pest or weed control at 125 g/ha,[16]; 125 g ai/ha,30%
same,pest or weed control at 16 g/ha,[17]; 16 g ai/ha,5%
same,pest or weed control at 31 g/ha,[17]; 31 g ai/ha,5%
same,pest or weed control at 62 g/ha,[17]; 62 g ai/ha,5%
same,pest or weed control at 125 g/ha,[17]; 125 g ai/ha,10%
same,plant injury at 31 g/ha,[18]; 31 g ai/ha,0%
same,plant injury at 62 g/ha,[18]; 62 g ai/ha,0%
same,plant injury at 125 g/ha,[18]; 125 g ai/ha,0%
same,pest or weed control at 16 g/ha,[19]; 16 g ai/ha,5%
same,pest or weed control at 31 g/ha,[19]; 31 g ai/ha,10%
same,pest or weed control at 62 g/ha,[19]; 62 g ai/ha,10%
same,pest or weed control at 125 g/ha,[19]; 125 g ai/ha,25%
same,plant injury at 31 g/ha,"[20]; 31 g ai/ha, preemergence",100%
same,plant injury at 62 g/ha,"[20]; 62 g ai/ha, preemergence",100%
same,plant injury at 125 g/ha,"[20]; 125 g ai/ha, preemergence",100%
same,plant injury at 16 g/ha,"[20]; Preemergence, 16 g ai/ha",90%
same,pest or weed control at 31 g/ha,"[21]; 31 g ai/ha, preemergence",35%
same,pest or weed control at 62 g/ha,"[21]; 62 g ai/ha, preemergence",50%
same,pest or weed control at 125 g/ha,"[21]; 125 g ai/ha, preemergence",90%
same,pest or weed control at 16 g/ha,"[21]; Preemergence, 16 g ai/ha",0%
same,pest or weed control at 31 g/ha,"[22]; 31 g ai/ha, preemergence",20%
same,pest or weed control at 62 g/ha,"[22]; 62 g ai/ha, preemergence",70%
same,pest or weed control at 125 g/ha,"[22]; 125 g ai/ha, preemergence",85%
same,pest or weed control at 16 g/ha,"[22]; Preemergence, 16 g ai/ha",0%

# From patent publication US20170190671A1, “BIS(ARYL)CATECHOL DERIVATIVES AS HERBICIDES” (E I DU PONT DE NEMOURS AND COMPANY, priority 2014, published 2017)
